This note sets out measurements from US11932609B1 (priority 2023, dated 2024).

Each structure is given as a SMILES string.

The test system of this test is multidrug-resistant (MDR) strains of Mycobacterium tuberculosis. It counts as cell-based. As to conditions: MDR-TB, drug resistance at least to isoniazid and rifampicin; REMA, Middlebrook 7H9 broth, 8 days at 37° C. plus overnight with resazurin. For orientation: The colour change of resazurin is a common sign of viable cells or microbes.

For the compound `CCOC(=O)C1=C(C)NC(Nc2ccc(Br)cc2C#N)=NC1c1ccc(F)cc1` (centres unmarked) [DHPM-KNV6, Ethyl 2-((4-bromo-2-cyanophenyl)amino)-4-(4-fluorophenyl)-6-methyl-1,4-dihydropyrimidine-5-carboxylate], the “Anti-tubercular activity against Mycobacterium tuberculosis MDR (MIC)” value is on record as “No activity”.

For the compound `CCOC(=O)C1=C(C)NC(Nc2ccccc2I)=NC1c1ccc(F)cc1` (centres unmarked) [DHPM-KNV8, Ethyl 4-(4-fluorophenyl)-2-((2-iodophenyl)amino)-6-methyl-1,4-dihydropyrimidine-5-carboxylate], the “Anti-tubercular activity against Mycobacterium tuberculosis MDR (MIC)” value is reported as “No activity”.
